From patent US6310072A (priority 1995, dated 2001)
Entries after “also recorded” stand apart in the source; their conditions may differ. Read-outs that look alike come from different tables or passages of the source.

Legend:
κ-opioid receptors = details: in vivo; cited from earlier work
Sprague-Dawley rats [1] = type: in vivo, rat (Sprague-Dawley)
Dark Agouti rats [2] = type: in vivo, rat (Dark Agouti); details: any time
Dark Agouti rats [3] = system: Dark Agouti rats; parameters: species or system rat (Dark Agouti); details: rat, in vivo, sc
Dark Agouti rats [4] = details: rat, in vivo, sc
surgical patients [5] = details: i.v. alone; cited from earlier work
Sprague-Dawley rats [6] = details: cited from earlier work; for ED50 / Time to maximum antinociception: i.c.v.
humans = details: naive human adult, every four hours, cited from earlier work
Sprague-Dawley rats [7] = type: in vivo, rat (Sprague-Dawley); remark: listed apart in the source
Sprague-Dawley rats [8] = system: Sprague-Dawley rats
[9] = cited from earlier work
[10] = system: fetal dorsal root ganglion sensory neurones; details: cited from earlier work
[11] = system: δ-opioid receptors relative to μ-opioid receptors; details: cited from earlier work
[12] = system: δ- relative to κ-opioid receptors; details: cited from earlier work
κ2a-2 opioid receptor = details: κ2a-2 subtype; cited from earlier work
surgical patients [13] = type: in vivo, human; details: i.v. morphine 2.0 mg plus oxycodone 2.0 mg; oxycodone 10 mg alone
Dark Agouti rats [14] = details: s.c. oxycodone; cited from earlier work
rats = details: systemic oxycodone; cited from earlier work

CCC12CCN(CC3(O)CC3)C(Cc3ccc(O)cc31)C2(C)C (centres unmarked) [bremazocine]
Antinociception profile (κ-opioid receptors): antinociception characterised by a rapid onset of action and a single antinociceptive phase

CCC12CCN(CC3CC3)C(C(=O)c3ccc(O)cc31)C2C (centres unmarked) [ethylketazocine]
Antinociception profile (κ-opioid receptors): antinociception characterised by a rapid onset of action and a single antinociceptive phase

CN1CC[C@]23c4c5ccc(O)c4O[C@H]2[C@@H](O)C=C[C@H]3[C@H]1C5 [morphine]
Degree of antinociception (%MPE) (Sprague-Dawley rats [1]; i.c.v. morphine 15 nmol alone, any time in 3 h): ≤ 20% | Antinociception (% MPE) (Dark Agouti rats [2]; i.p. morphine 621 nmol alone): ≤ 50 % MPE | Time of onset of antinociception (%MPE≥30%) (Dark Agouti rats [3]): 22 min | Failure of eye reflex test (Dark Agouti rats [4]): approximately 40 % of the time | Failure of righting reflex test (Dark Agouti rats [4]): approximately 33 % of the time | Dose used for intubation (surgical patients [5]): approximately 10 mg | ED50 (Sprague-Dawley rats [6]): 34 nmol | Lower threshold initial dose producing analgesia (humans; intravenous): 4 to 5 mg | Lower threshold initial dose producing analgesia (humans; oral): 30 mg

C=CCN1CC[C@]23c4c5ccc(O)c4O[C@H]2/C(=N/N=C2\CC[C@@]4(O)[C@H]6Cc7ccc(O)c8c7[C@@]4(CCN6CC=C)[C@H]2O8)CC[C@@]3(O)[C@H]1C5 [naloxonazine]
Duration of action of oxycodone after antagonist (Sprague-Dawley rats [7]; rat, in vivo): 60 min | Effect on morphine antinociception (Sprague-Dawley rats [7]; rat, in vivo): completely attenuated; also recorded: attenuated the antinociceptive effects | Effect on oxycodone antinociception (Sprague-Dawley rats [7]; rat, in vivo): minor effect on the observed antinocicepfion; also recorded: magnitude of antinociception did not appear to be significantly reduced during the first 15 min; also recorded: almost no effect; also recorded: did not attenuate | Reduction of %MPE values versus untreated rats (Sprague-Dawley rats [7]; rat, in vivo): 5-10% | Excitatory behaviour (Sprague-Dawley rats [8]; rat, in vivo): minor excitatory behaviour (shaking and teeth chattering) | Sensitivity to external stimuli versus untreated rats (Sprague-Dawley rats [8]; rat, in vivo): more sensitive to external stimuli (touch and sound) | Effect on DAMGO antinociception ([9]; naloxonazine): antagonise the antinociceptive effects | Effect on DPDPE antinociception ([9]; naloxonazine): did not reduce the antinociception | Effect on morphine antinociception ([9]; naloxonazine): antagonise the antinociceptive effects

C=CCN1CC[C@]23c4c5ccc(O)c4O[C@H]2C(=O)CC[C@@]3(O)[C@H]1C5 [naloxone]
Reversal of oxycodone/morphine antinociception by naloxone (Sprague-Dawley rats [6]; rat, in vivo): completely reversible; also recorded: completely attenuated | Action potential duration (APD) [10]: marked shortening of the action potential duration (APD)

O=C1CC[C@@]2(O)[C@H]3Cc4ccc(O)c5c4[C@@]2(CCN3CC2CC2)[C@H]1O5 [naltrexone]
Action potential duration (APD) [10]: marked shortening of the action potential duration (APD)

Oc1ccc2c3c1O[C@H]1c4[nH]c5ccccc5c4C[C@@]4(O)[C@@H](C2)N(CC2CC2)CC[C@]314 [naltrindole]
%MPE values versus pre-dosing baseline (Sprague-Dawley rats [7]; rat, in vivo): not significantly different (p>0.05) from pre-dosing baseline values | Effect on DPDPE antinociception (Sprague-Dawley rats [7]; rat, in vivo): significantly attenuated (p<0.05); also recorded: completely attenuated | Effect on oxycodone antinociception (Sprague-Dawley rats [7]; rat, in vivo): did not significantly attenuate (p>0.05); also recorded: failed to attenuate | Selectivity for δ- relative to μ-opioid receptors [11]: 100 fold | Selectivity for δ- relative to κ-opioid receptors [12]: 10,000 fold

Oc1ccc2c3c1O[C@H]1c4[nH]c5c(c4C[C@@]4(O)[C@@H](C2)N(CC2CC2)CC[C@]314)C[C@@]1(O)[C@H]2Cc3ccc(O)c4c3[C@@]1(CCN2CC1CC1)[C@H]5O4 [nor-BNI, nor-binaltorphimine]
Effect on U69,593 antinociception (Sprague-Dawley rats [7]; rat, in vivo): complete attenuation of the antinociceptive effects; also recorded: markedly attenuated | Effect on bremazocine antinociception (Sprague-Dawley rats [7]; rat, in vivo): complete attenuation of the antinociceptive effects; also recorded: markedly attenuated | Effect on morphine antinociception (Sprague-Dawley rats [7]; rat, in vivo): not attenuated; also recorded: no effect; also recorded: did not attenuate | Effect on oxycodone antinociception (Sprague-Dawley rats [7]; rat, in vivo): complete attenuation of the antinociceptive effects; also recorded: markedly attenuated; also recorded: completely attenuated; also recorded: completely attentuated; also recorded: attenuated only by nor-BNI | Ki (κ2a-2 opioid receptor): 5.9 nM | Effect on U69,593 antinociception ([9]; nor-BNI): antagonize the antinociceptive effects | Effect on bremazocine antinociception ([9]; nor-BNI): antagonize the antinociceptive effects

COc1ccc2c3c1O[C@H]1C(=O)CC[C@@]4(O)[C@@H](C2)N(C)CC[C@]314 [oxycodone]
Duration of antinociception (Sprague-Dawley rats [1]; i.c.v. equipotent doses administered separately): 90 min | Antinociception (Sprague-Dawley rats [1]; i.c.v. oxycodone 40 nmol alone): no antinociception was observed; also recorded: most of the %MPE values were negative | Antinociception (% MPE) (Dark Agouti rats [2]; i.p. oxycodone 571 nmol alone): ≤ 50 % MPE | Time of peak antinociception (Sprague-Dawley rats [7]; i.c.v. oxycodone 200 nmol): 5 min | Time to return to baseline values (Sprague-Dawley rats [7]; i.c.v. oxycodone 200 nmol): ≤ 90 min | Antinociception peak (% MPE) (Sprague-Dawley rats [7]; i.c.v. oxycodone 200 nmol, 5 min): 100 % MPE | Duration of action of oxycodone (Sprague-Dawley rats [7]; oxycodone 200 nmol i.c.v. alone): 90 min | ED50 oxycodone dose (Dark Agouti rats [3]): 0.44 (±0.04) mg | Time of onset of antinociception (%MPE≥30%) (Dark Agouti rats [3]): 12 min | Time to maximum antinociception (Tmax) (Dark Agouti rats [3]): 20 min | Onset of clinical effect (surgical patients [13]): ~5 min | Catatonic behaviour (Sprague-Dawley rats [8]; i.c.v. oxycodone 200 nmol): nor did they exhibit the catatonic behaviour | Spontaneous bladder emptying or incontinence (Sprague-Dawley rats [8]; i.c.v., oxycodone 200 nmol, morphine 78 nmol): did not exhibit any signs of spontaneous bladder emptying or incontinence | Failure of eye reflex test (Dark Agouti rats [4]): approximately 40 % of the time | Failure of righting reflex test (Dark Agouti rats [4]): ~50 % of the time | Loss of landing reflex (Dark Agouti rats [4]): no loss of the landing reflex | Loss of righting or landing reflexes (Dark Agouti rats [4]): no loss of the righting or landing reflexes | Sedation (Dark Agouti rats [4]): markedly sedated compared with control rats | Dose used for intubation (surgical patients [5]): approximately 10 mg | Reversal of oxycodone/morphine antinociception by naloxone (Sprague-Dawley rats [6]; i.c.v. naloxone (55 nmol)): naloxone-reversible antinociceptlon | Time by which antinociception is essentially complete (Sprague-Dawley rats [6]; i.c.v. oxycodone, post-dosing): ≤ 90 min | ED50 (Sprague-Dawley rats [6]): 78 nmol | Time to maximum antinociception (Sprague-Dawley rats [6]): ≤ 7 min | Time to maximum antinociception (Sprague-Dawley rats [6]; listed as Oxycodone): 5 to 7 min | Lower threshold initial dose producing analgesia (humans; oral): 10 mg | Antinociception (Dark Agouti rats [14]): achieved maximum antinociception | Catatonic behaviour (rats): catatonic behaviour observed
